Drawing on patent US20250059188A1, “ARYLSULPHONAMIDE COMPOUNDS” (Anaxis Pharma Pty Ltd, priority 2021, published 2025), this text covers IC50 for 14 molecules.

Molecules are shown by their SMILES. pIC50: −log10 of the molar value.

Test [1] concerns U937 human histiocytic leukemia cell line. Put plainly: Inhibition of TSQ induced necroptosis in U937 cells (CellTitre-Glo). The conditions noted are these: Homo sapiens, U-937, TSQ cocktail (TNF, Smac mimetic, Q-VD-OPh), 48 hours, read-out: Inhibition of TSQ-induced necroptosis (IC50 cell-based assay). The method, boiled down: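 Necroptosis was induced with TNF-Fc (100 ng/ml), Smac mimetic (500 nM) and Q-VD-OPh (10 μM) in 20000 U937 cells/well exposed to a 10-point, 3-fold compound series (top 36 μM, 0.3% DMSO). ATP luminescence read after 48 h; 4-parameter fit gave IC50. Parallel TSQ-free wells assessed compound toxicity.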

In the next test the test system is U937 cells. Put plainly: Counter screen: U937 cell viability without TSQ cocktail (off-target effect). The arrangement: species or system human. The conditions noted are these: Homo sapiens, U-937, compound without TSQ cocktail, read-out: Off-target effect (IC50 cell-based assay). The method in brief: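 Off-target viability counter screen: compounds titrated 36 μM down 1:3 over 10 points (0.3% DMSO) on 20,000 U937 cells/well, no TNF/Smac mimetic/Q-VD-OPh added, 48 h incubation. ATP-based CellTiter-Glo luminescence, four-parameter logistic IC50.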

As to `Cn1nc(-c2ccc(NS(=O)(=O)C(F)F)c(OCc3ccc(Cl)c(F)c3)c2)c2c(N)ncc(-c3cnn(C4CCOCC4)c3)c21` [Compound 132, N-(4-(4-amino-1-methyl-7-(1-(tetrahydro-2H-pyran-4-yl)-1H-pyrazol-4-yl)-1H-pyrazolo[4,3-c]pyridin-3-yl)-2-((4-chloro-3-fluorobenzyl)oxy)phenyl)-1,1-difluoromethanesulfonamide], the pIC50 is 6.00 to 8.00 in test [1] and < 5.00 in the test with U937 cells.

With `COCC(Oc1cc(-c2nn(C)c3c(-c4cnn(C5CCN(C)CC5)c4)cnc(N)c23)ccc1NS(=O)(=O)C(F)F)c1ccc(F)cc1` (stereo not shown) [Compound 139, N-(4-(4-amino-1-methyl-7-(1-(1-methylpiperidin-4-yl)-1H-pyrazol-4-yl)-1H-pyrazolo[4,3-c]pyridin-3-yl)-2-(1-(4-fluorophenyl)-2-methoxyethoxy)phenyl)-1,1-difluoromethanesulfonamide], the pIC50 in test [1] is 6.00 to 8.00; with U937 cells, < 5.00.

Regarding `CC(n1cc(-c2cnc(N)c3c(-c4ccc(NS(=O)(=O)C(F)F)c(O[C@@H](C)c5ccc(F)cc5)c4)nn(C)c23)cn1)C(F)(F)F` (stereo partly drawn) [Compound 142, N-(4-(4-amino-1-methyl-7-(1-(1,1,1-trifluoropropan-2-yl)-1H-pyrazol-4-yl)-1H-pyrazolo[4,3-c]pyridin-3-yl)-2-((S)-1-(4-fluorophenyl)ethoxy)phenyl)-1,1-difluoromethanesulfonamide], the negative-log IC50 (pIC50) in test [1] was 6.00 to 8.00; in the test with U937 cells it was < 5.00.

As to `C[C@H](Oc1cc(-c2nn(C)c3c(-c4cnn(C5CCN(C)C6(CC6)C5)c4)cnc(N)c23)ccc1NS(=O)(=O)C(F)F)c1ccc(F)cc1` (stereo partly drawn) [Compound 145, N-(4-(4-amino-1-methyl-7-(1-(4-methyl-4-azaspiro[2.5]octan-7-yl)-1H-pyrazol-4-yl)-1H-pyrazolo[4,3-c]pyridin-3-yl)-2-((S)-1-(4-fluorophenyl)ethoxy)phenyl)-1,1-difluoromethanesulfonamide], the pIC50 in test [1] was > 8.00; with U937 cells, < 5.00.

Regarding `C[C@H](Oc1cc(-c2nn(C)c3c(-c4cnn(C5CCC(F)(F)CC5)c4)cnc(N)c23)ccc1NS(=O)(=O)C(F)F)c1ccc(F)cc1` [Compound 146, (S)-N-(4-(4-amino-7-(1-(4,4-difluorocyclohexyl)-1H-pyrazol-4-yl)-1-methyl-1H-pyrazolo[4,3-c]pyridin-3-yl)-2-(1-(4-fluorophenyl)ethoxy)phenyl)-1,1-difluoromethanesulfonamide], the results for the pIC50 (in test [1]; in the test on U937 cells) were > 8.00 and < 5.00, respectively.

As to `CC1C(n2cc(-c3cnc(N)c4c(-c5ccc(NS(=O)(=O)C(F)F)c(O[C@@H](C)c6ccc(F)cc6)c5)nn(C)c34)cn2)CN1C` (stereo partly drawn) [Compound 147, N-(4-(4-amino-7-(1-(1,2-dimethylazetidin-3-yl)-1H-pyrazol-4-yl)-1-methyl-1H-pyrazolo[4,3-c]pyridin-3-yl)-2-((S)-1-(4-fluorophenyl)ethoxy)phenyl)-1,1-difluoromethanesulfonamide], the pIC50 was 6.00 to 8.00 in test [1] and < 5.00 in the test with U937 cells.

For the molecule `C[C@H](Oc1cc(-c2nn(C)c3c(-c4cnn(C5CCN(C)C(C(F)(F)F)C5)c4)cnc(N)c23)ccc1NS(=O)(=O)C(F)F)c1ccc(F)cc1` (stereo partly drawn) [Compound 148, N-(4-(4-amino-1-methyl-7-(1-(1-methyl-2-(trifluoromethyl)piperidin-4-yl)-1H-pyrazol-4-yl)-1H-pyrazolo[4,3-c]pyridin-3-yl)-2-((S)-1-(4-fluorophenyl)ethoxy)phenyl)-1,1-difluoromethanesulfonamide], the values for the pIC50 (in test [1]; in the test with U937 cells) were > 8.00 and < 5.00, respectively.

`C[C@H](Oc1cc(-c2nn(C)c3c(-c4cnn(C5CC6CCC(C5)N6CC(F)(F)F)c4)cnc(N)c23)ccc1NS(=O)(=O)C(F)F)c1ccc(F)cc1` (stereo partly drawn) [Compound 153, N-(4-(4-amino-1-methyl-7-(1-(8-(2,2,2-trifluoroethyl)-8-azabicyclo[3.2.1]octan-3-yl)-1H-pyrazol-4-yl)-1H-pyrazolo[4,3-c]pyridin-3-yl)-2-((S)-1-(4-fluorophenyl)ethoxy)phenyl)-1,1-difluoromethanesulfonamide]: the pIC50 was 6.00 to 8.00 in test [1] and < 5.00 in the test with U937 cells.

For `Cc1c(-c2cnc(N)c3c(-c4ccc(NS(=O)(=O)C(F)F)c(O[C@@H](C)c5ccc(F)cc5)c4)nn(C)c23)cnn1C1CCN(C)C(C)(C)C1` (stereo partly drawn) [Compound 157, N-(4-(4-amino-1-methyl-7-(5-methyl-1-(1,2,2-trimethylpiperidin-4-yl)-1H-pyrazol-4-yl)-1H-pyrazolo[4,3-c]pyridin-3-yl)-2-((S)-1-(4-fluorophenyl)ethoxy)phenyl)-1,1-difluoromethanesulfonamide], the negative-log IC50 (pIC50) in test [1] was 6.00 to 8.00; with U937 cells, < 5.00.

On to `C[C@H](Oc1cc(-c2nn(C)c3c(-c4cnn(C5CCN(C)C(C)(C)C5)c4)cnc(N)c23)ccc1NS(=O)(=O)C(F)F)c1ccc(Cl)cc1` (stereo partly drawn) [Compound 159, N-(4-(4-amino-1-methyl-7-(1-(1,2,2-trimethylpiperidin-4-yl)-1H-pyrazol-4-yl)-1H-pyrazolo[4,3-c]pyridin-3-yl)-2-((S)-1-(4-chlorophenyl)ethoxy)phenyl)-1,1-difluoromethanesulfonamide], for which the pIC50 is > 8.00 in test [1] and < 5.00 in the test on U937 cells.

Consider `C[C@H](Oc1cc(-c2nn(C)c3c(-c4cnn(C5CC(C)(C)N(C)C(C)(C)C5)c4)cnc(N)c23)ccc1NS(=O)(=O)C(F)F)c1ccc(F)cc1` [Compound 162, (S)-N-(4-(4-amino-1-methyl-7-(1-(1,2,2,6,6-pentamethylpiperidin-4-yl)-1H-pyrazol-4-yl)-1H-pyrazolo[4,3-c]pyridin-3-yl)-2-(1-(4-fluorophenyl)ethoxy)phenyl)-1,1-difluoromethanesulfonamide], for which the pIC50 was > 8.00 in test [1] and < 5.00 in the test on U937 cells.

On to `C[C@H](Oc1cc(-c2nn(C)c3c(-c4cnn(C5C[C@H]6CNC[C@H]6C5)c4)cnc(N)c23)ccc1NS(=O)(=O)C(F)F)c1ccc(F)cc1` (stereo partly drawn) [Compound 163, N-(4-(4-amino-1-methyl-7-(1-((3aR,6aS)-octahydrocyclopenta[c]pyrrol-5-yl)-1H-pyrazol-4-yl)-1H-pyrazolo[4,3-c]pyridin-3-yl)-2-((S)-1-(4-fluorophenyl)ethoxy)phenyl)-1,1-difluoromethanesulfonamide], for which the values for the pIC50 (in test [1]; in the test with U937 cells) were 6.00 to 8.00 and < 5.00, respectively.

Take `C[C@H](Oc1cc(-c2nn(C)c3c(-c4cnn(C5C[C@@H]6CN(C)C[C@@H]6C5)c4)cnc(N)c23)ccc1NS(=O)(=O)C(F)F)c1ccc(F)cc1` (stereo partly drawn) [Compound 164, N-(4-(4-amino-1-methyl-7-(1-((3aR,6aS)-2-methyloctahydrocyclopenta[c]pyrrol-5-yl)-1H-pyrazol-4-yl)-1H-pyrazolo[4,3-c]pyridin-3-yl)-2-((S)-1-(4-fluorophenyl)ethoxy)phenyl)-1,1-difluoromethanesulfonamide]: the pIC50 in test [1] is > 8.00; in the test on U937 cells, < 5.00.

As to `C[C@H](Oc1cc(-c2nn(C)c3c(-c4ccc5c(cnn5C)c4)cnc(N)c23)ccc1NS(=O)(=O)C(F)F)c1ccc(F)cc1` [Compound 166, (S)-N-(4-(4-amino-1-methyl-7-(1-methyl-1H-indazol-5-yl)-1H-pyrazolo[4,3-c]pyridin-3-yl)-2-(1-(4-fluorophenyl)ethoxy)phenyl)-1,1-difluoromethanesulfonamide], the results for the pIC50 (in test [1]; in the test on U937 cells) were 6.00 to 8.00 and < 5.00, respectively.
